Our source for the IC50 values is patent publication US12116343B2, “Inhibitors of APOL1 and methods of using same” (Vertex Pharmaceuticals Incorporated, priority 2020, dated 2024).

The target in the assay is T1, APOL1 G1 Protein (Homo sapiens, UniProt O14791, I384M/S342G).
T1 sequence (O14791 28-398 S342G/I384M): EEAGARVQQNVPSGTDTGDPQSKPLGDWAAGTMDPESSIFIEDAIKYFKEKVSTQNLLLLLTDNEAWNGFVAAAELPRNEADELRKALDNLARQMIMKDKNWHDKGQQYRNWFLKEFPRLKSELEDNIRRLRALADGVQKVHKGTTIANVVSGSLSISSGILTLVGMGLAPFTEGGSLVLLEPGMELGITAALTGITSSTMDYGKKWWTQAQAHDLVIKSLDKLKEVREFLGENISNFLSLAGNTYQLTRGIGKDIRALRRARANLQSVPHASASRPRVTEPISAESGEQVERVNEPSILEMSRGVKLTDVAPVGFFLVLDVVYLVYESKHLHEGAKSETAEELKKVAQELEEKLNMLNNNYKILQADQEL
The assay is described as follows: Trypanosoma brucei brucei lysis assay using APOL1 recombinant protein (AlamarBlue viability). The format is cell-based. Conditions: Trypanosoma brucei brucei lysis, recombinant APOL1, AlamarBlue; read-out: Trypanosoma Assay (IC50). The text has this: Trypanosoma brucei brucei is a blood stream parasite to which human, gorillas and baboon are immune due to the presence of the APOL1 protein in their HDL particles. The protein is uptaken by the parasite via the TbHpHb receptor located in its flagellar pocket and is bonded by the Hpr protein contained in the HDL particles which triggers the receptor endocytosis by the parasite.
Following endocytosis, the formed vesicle containing the HDL particle matures from early to late endosome, and subsequently to lysosome. The concomitant pH change in the lumen of the vesicle triggers the insertion of the APOL1 protein into the membrane of the late endosome/lysosome and hereby triggers lysosomal membrane premeabilisation and as a further downstream event, trypanosome lysis. Trypanosoma brucei brucei is sensitive to lysis by all three APOL1 variants (G0, G1, and G2).
The Trypanosoma brucei brucei lysis assay is a lysis assay of the parasite using recombinant APOL1 protein variant followed by a fluorescent detection method of viability by the addition of AlamarBlue reagent to the assay well, a general metabolic redox indicator (AlamarBlue assay).
Briefly, the AlamarBlue active compound, the resazurin, a blue, water soluble, non-toxic and cell permeable molecule, which can be followed by absorbance, is reduced by various metabolic pathways into resorufin, a red compound which can be followed by either absorbance or fluorescence. The assay allows the calculation of the percent viability (percent of living Trypanosomes remaining in each well) at the end of a lysis relative to the untreated condition by interpolation of fluorescent values (FLU) on a standard curve with a known amount of seeded trypanosome/well.
Trypanosoma brucei brucei (ATCC, Cat. No. PRA-382) • Lister 427 VSG 221 bloodstream form.
Thaw/Expansion Media (ATCC Medium 2834 Modified HMI-9 Medium)
Assay Media (No Phenol Red/No FBS): Make on Day of Use
Hypoxanthine Stock (100×)-9 (10×)
Equipment • El-Clip Tip pipette 12 channel adjustable 2-125 μL, Cat. No. 4672070BT • ThermoFisher MultiDrop 384, Cat. No. 5840300 • Multidrop • Agilent Bravo, Cat. No. G5409A • Bravo • SpectraMax M5
Assay Ready Plates (ARPs) • ARPs comes in two formats: • […] final top concentration with a 2.5 fold dilution down. • […] final top concentration with a 3 fold dilution down. • Both have a 10 point Dose response. • 0.1% DMSO final in the Black Assay Plate. • Compounds are diluted 1000 fold in the Black Assay Plate. • Each plate is designed for 14 compounds in duplicate. • In the final Black Assay Plate:
Trypanosoma brucei brucei Culture
Step 2, Day 4 • Centrifuge at 800×g for 5 minutes at room temperature. • Resuspend in 1 mL media. • Make a 1:25 fold dilution (10 μL/240 μL media). • Count on a hemocytometer (after adding parasites). • Let sit for 1-2 minutes for the parasites to settle. • Count should be approximately 100 viable motile parasites/16 grid or approximately 25×10^6 parasites/flask. • Passage the parasites by adding 1×10^6 parasites/T75 flask in 20 mL media. • Passage the parasites by adding 2.33×10^6 parasites/T175 flask in 46.6 mL media. • For every T75 flask should make enough for approximately 1.5×384 well assay plates. • For every T175 flask should make enough for approximately 3.8×384 well assay plates.
Step 3, Day 6 • Centrifuge at 800×g for 5 minutes. • Resuspend in 3 mL assay media (No phenol red, no FBS) per 75 starting flask. • Resuspend in 7 mL assay media (No phenol red, no FBS) per 175 flask • Make a 1:25 fold dilution. • Count by hemocytometer. • Every T75 flask set up should have approximately 75×10^6 parasites/flask (verify doubling time=8.7 hrs±1 hr). • Every T175 flask set up should have approximately 175×10^6 parasites/flask (verify doubling time=8.7 hrs±1 hr). • Require 46×10^6 parasites per 384 well plate (at 120,000 parasites per well). Protocol B […]

As a reminder, the IC50 is the point on the concentration scale where inhibition reaches its midpoint.

Consider `CC(O)CN(CCO)C(=O)[C@H]1C[C@H](c2c(-c3ccc(F)cc3)[nH]c3c(F)cc(F)cc32)C1` (mixture of isomers) [Compound 129], for which the IC50 was under 250 nM.

In the case of `NC(=O)C1CCN(C(=O)[C@H]2C[C@H](c3c(-c4ccc(F)cc4)[nH]c4c(F)cc(F)cc43)C2)CC1` [Compound 133], the IC50 is over 1000 nM. In the case of `NC(=O)[C@H](CO)NC(=O)[C@H]1C[C@H](c2c(-c3ccc(F)cc3)[nH]c3c(F)cc(F)cc32)C1` [Compound 144], the IC50 lay within 250 to 1000 nM. Take `O=C([C@H]1C[C@H](c2c(-c3ccc(F)cc3)[nH]c3c(F)cc(F)cc32)C1)N1CC[C@H](CO)C1` [Compound 140]: the IC50 is over 1000 nM.

With `O=C([C@H]1C[C@H](c2c(-c3ccc(F)cc3)[nH]c3c(F)cc(F)cc32)C1)N1CCC(CO)(CO)CC1` [Compound 108], the IC50 was over 1000 nM.

For the molecule `O=C([C@H]1C[C@H](c2c(-c3ccc(F)cc3)[nH]c3c(F)cc(F)cc32)C1)N1C[C@@H]2[C@@H](CO)[C@@H]2C1` [Compound 99], the IC50 was over 1000 nM.

As to `O=C([C@H]1C[C@H](c2c(-c3ccc(F)cc3)[nH]c3c(F)cc(F)cc32)C1)N1CC2(CC(O)C2)C1` [Compound 137], the IC50 was over 1000 nM. On to `CN(CC1(CO)CCOCC1)C(=O)[C@H]1C[C@H](c2c(-c3ccc(F)cc3)[nH]c3c(F)cc(F)cc32)C1` [Compound 120], for which the half-maximal inhibitory concentration (IC50) was over 1000 nM. For `CC(CO)N1CCN(C(=O)[C@H]2C[C@H](c3c(-c4ccc(F)cc4)[nH]c4c(F)cc(F)cc43)C2)CC1` (mixture of isomers) [Compound 122], the IC50 was over 1000 nM. For the molecule `O=C(NCc1cnco1)[C@H]1C[C@H](c2c(-c3ccc(F)cc3)[nH]c3c(F)cc(F)cc32)C1` [Compound 170], the IC50 was under 250 nM. For `CO[C@H]1CCN(C(=O)[C@H]2C[C@H](c3c(-c4ccc(F)cc4)[nH]c4c(F)cc(F)cc43)C2)C1` [Compound 95], the IC50 is over 1000 nM. Turning to `NC(=O)[C@@H]1CCN(C(=O)[C@H]2C[C@H](c3c(-c4ccc(F)cc4)[nH]c4c(F)cc(F)cc43)C2)C1` [Compound 135], the IC50 was over 1000 nM. Turning to `CCN(C(=O)[C@H]1C[C@H](c2c(-c3ccc(F)cc3)[nH]c3c(F)cc(F)cc32)C1)C(C)CO` (mixture of isomers) [Compound 111], the IC50 fell in the range of 250 to 1000 nM.

`O=C([C@H]1C[C@H](c2c(-c3ccc(F)cc3)[nH]c3c(F)cc(F)cc32)C1)N1CC(n2cccn2)C1` [Compound 96]: the IC50 is over 1000 nM.

With `O=C([C@H]1C[C@H](c2c(-c3ccc(F)cc3)[nH]c3c(F)cc(F)cc32)C1)N1CCOC(O)C1` (stereo partly drawn) [Compound 115], the IC50 was under 250 nM.

As for `O=C([C@H]1C[C@H](c2c(-c3ccc(F)cc3)[nH]c3c(F)cc(F)cc32)C1)N(CCO)CCCO` [Compound 117], the IC50 fell in the range of 250 to 1000 nM. Consider `CCN(CCO)C(=O)[C@H]1C[C@H](c2c(-c3ccc(F)cc3)[nH]c3c(F)cc(F)cc32)C1` [Compound 124], for which the IC50 was in the range of 250 to 1000 nM. Next, `O=C([C@H]1C[C@H](c2c(-c3ccc(F)cc3)[nH]c3c(F)cc(F)cc32)C1)N1CC[C@H](CO)[C@H](O)C1` [Compound 100]: over 1000 nM; `O=C([C@H]1C[C@H](c2c(-c3ccc(F)cc3)[nH]c3c(F)cc(F)cc32)C1)N1CCC(CCO)CC1` [Compound 134]: over 1000 nM; `O=C([C@H]1C[C@H](c2c(-c3ccc(F)cc3)[nH]c3c(F)cc(F)cc32)C1)N1CCN[C@H](CO)C1` [Compound 161]: 250 to 1000 nM. For `O=C([C@H]1C[C@H](c2c(-c3ccc(F)cc3)[nH]c3c(F)cc(F)cc32)C1)N1CCOC(CO)C1` (stereo partly drawn) [Compound 148], the IC50 is over 1000 nM. Next, `C[C@@H](O)[C@@H](CO)NC(=O)[C@H]1C[C@H](c2c(-c3ccc(F)cc3)[nH]c3c(F)cc(F)cc32)C1` [Compound 160]: under 250 nM; `O=C(O)CNC(=O)[C@H]1C[C@H](c2c(-c3ccc(F)cc3)[nH]c3c(F)cc(F)cc32)C1` [Compound 10]: over 1000 nM; `C[C@@H](O)[C@H](CO)NC(=O)[C@H]1C[C@H](c2c(-c3ccc(F)cc3)[nH]c3c(F)cc(F)cc32)C1` [Compound 155]: 250 to 1000 nM. For `C[C@H]1CN(C(=O)[C@H]2C[C@H](c3c(-c4ccc(F)cc4)[nH]c4c(F)cc(F)cc43)C2)CC[C@@H]1O` [Compound 116] the value was over 1000 nM; for `CC(O)C1CCCN(C(=O)[C@H]2C[C@H](c3c(-c4ccc(F)cc4)[nH]c4c(F)cc(F)cc43)C2)C1` (stereo partly drawn) [Compound 131], over 1000 nM; for `O=C([C@H]1C[C@H](c2c(-c3ccc(F)cc3)[nH]c3c(F)cc(F)cc32)C1)N1CCCC1CCO` (stereo partly drawn) [Compound 101], 250 to 1000 nM. As to `O=C([C@H]1C[C@H](c2c(-c3ccc(F)cc3)[nH]c3c(F)cc(F)cc32)C1)N1CCO[C@H](CO)C1` [Compound 118], the IC50 was over 1000 nM. For `O=C1NCC[C@@H]1NC(=O)[C@H]1C[C@H](c2c(-c3ccc(F)cc3)[nH]c3c(F)cc(F)cc32)C1` [Compound 162], the IC50 fell in the range of 250 to 1000 nM.

As for `O=C([C@H]1C[C@H](c2c(-c3ccc(F)cc3)[nH]c3c(F)cc(F)cc32)C1)N1CC(O)C(N2CCOCC2)C1` (stereo partly drawn) [Compound 106], the IC50 is over 1000 nM. For the molecule `O=C1CC[C@H](NC(=O)[C@H]2C[C@H](c3c(-c4ccc(F)cc4)[nH]c4c(F)cc(F)cc43)C2)C1` [Compound 139], the IC50 fell in the range of 250 to 1000 nM. On to `O=C([C@H]1C[C@H](c2c(-c3ccc(F)cc3)[nH]c3c(F)cc(F)cc32)C1)N1CCCC(CO)C1` (stereo partly drawn) [Compound 147], for which the IC50 was over 1000 nM. Next, `O=C([C@H]1C[C@H](c2c(-c3ccc(F)cc3)[nH]c3c(F)cc(F)cc32)C1)N1CCCCC1CO` (stereo partly drawn) [Compound 145]: 250 to 1000 nM.

In the case of `O=C(NCC1(O)CCC1)[C@H]1C[C@H](c2c(-c3ccc(F)cc3)[nH]c3c(F)cc(F)cc32)C1` [Compound 143], the half-maximal inhibitory concentration (IC50) was over 1000 nM.

Consider `O=C(NC1CC(O)C1)[C@H]1C[C@H](c2c(-c3ccc(F)cc3)[nH]c3c(F)cc(F)cc32)C1` (stereo partly drawn) [Compound 5], for which the IC50 was in the range of 250 to 1000 nM. As for `O=C([C@H]1C[C@H](c2c(-c3ccc(F)cc3)[nH]c3c(F)cc(F)cc32)C1)N1CCCC(O)C1` (stereo partly drawn) [Compound 150], the IC50 lay within 250 to 1000 nM.

Consider `CC(C)(NC(=O)[C@H]1C[C@H](c2c(-c3ccc(F)cc3)[nH]c3c(F)cc(F)cc32)C1)C(N)=O` [Compound 11], for which the IC50 is under 250 nM. As for `C[C@H](CO)N(C)C(=O)[C@H]1C[C@H](c2c(-c3ccc(F)cc3)[nH]c3c(F)cc(F)cc32)C1` [Compound 142], the IC50 was under 250 nM.

In the case of `NC(=O)[C@H]1CCCN1C(=O)[C@H]1C[C@H](c2c(-c3ccc(F)cc3)[nH]c3c(F)cc(F)cc32)C1` [Compound 153], the IC50 was under 250 nM.
